One experiment deals with T1, Protein skinhead-1 (Caenorhabditis elegans, UniProt P34707).
T1 sequence (P34707 whole entry): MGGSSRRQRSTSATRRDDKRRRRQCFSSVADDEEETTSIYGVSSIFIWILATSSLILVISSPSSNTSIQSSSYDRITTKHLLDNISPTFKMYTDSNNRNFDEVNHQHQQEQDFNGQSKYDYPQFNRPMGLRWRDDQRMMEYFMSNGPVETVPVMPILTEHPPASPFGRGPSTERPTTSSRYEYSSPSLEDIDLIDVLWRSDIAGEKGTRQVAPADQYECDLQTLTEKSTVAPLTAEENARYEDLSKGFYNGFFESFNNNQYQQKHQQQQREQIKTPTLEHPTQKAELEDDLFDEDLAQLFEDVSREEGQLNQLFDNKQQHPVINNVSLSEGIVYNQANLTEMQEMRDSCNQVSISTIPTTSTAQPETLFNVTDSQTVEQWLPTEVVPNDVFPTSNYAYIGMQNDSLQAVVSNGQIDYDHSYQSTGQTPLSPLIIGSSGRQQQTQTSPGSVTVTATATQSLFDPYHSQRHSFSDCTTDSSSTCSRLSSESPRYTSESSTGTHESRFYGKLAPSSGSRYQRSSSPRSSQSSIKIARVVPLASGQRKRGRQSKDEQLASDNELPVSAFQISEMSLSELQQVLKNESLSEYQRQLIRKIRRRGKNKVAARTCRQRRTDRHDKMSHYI
It counts as functional.

Experiment [1] has as its system BJ. The experiment in a line: BJ-TERT-LT-ST fibroblast viability loss – cell-based, RAS-independent, luminescence, dose response (AID 1935).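 Note: BJ fibroblasts immortalized with TERT plus LT and ST oncogenes.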 It counts as functional. The note with it: Homo sapiens.
The nature of experiment [2]: DRD fibroblast viability loss – cell-based, non-viral oncogenic, luminescence, dose response (AID 1934). It counts as functional. The settings on record: Homo sapiens.
A short description of experiment [3]: microbe, parasite or virus in culture. It counts as functional. The settings on record: Mycobacterium tuberculosis.
Experiment [4] addresses T2, Replicative DNA helicase DnaB (Mycobacterium tuberculosis, UniProt P9WMR3).
T2 sequence (P9WMR3 whole entry): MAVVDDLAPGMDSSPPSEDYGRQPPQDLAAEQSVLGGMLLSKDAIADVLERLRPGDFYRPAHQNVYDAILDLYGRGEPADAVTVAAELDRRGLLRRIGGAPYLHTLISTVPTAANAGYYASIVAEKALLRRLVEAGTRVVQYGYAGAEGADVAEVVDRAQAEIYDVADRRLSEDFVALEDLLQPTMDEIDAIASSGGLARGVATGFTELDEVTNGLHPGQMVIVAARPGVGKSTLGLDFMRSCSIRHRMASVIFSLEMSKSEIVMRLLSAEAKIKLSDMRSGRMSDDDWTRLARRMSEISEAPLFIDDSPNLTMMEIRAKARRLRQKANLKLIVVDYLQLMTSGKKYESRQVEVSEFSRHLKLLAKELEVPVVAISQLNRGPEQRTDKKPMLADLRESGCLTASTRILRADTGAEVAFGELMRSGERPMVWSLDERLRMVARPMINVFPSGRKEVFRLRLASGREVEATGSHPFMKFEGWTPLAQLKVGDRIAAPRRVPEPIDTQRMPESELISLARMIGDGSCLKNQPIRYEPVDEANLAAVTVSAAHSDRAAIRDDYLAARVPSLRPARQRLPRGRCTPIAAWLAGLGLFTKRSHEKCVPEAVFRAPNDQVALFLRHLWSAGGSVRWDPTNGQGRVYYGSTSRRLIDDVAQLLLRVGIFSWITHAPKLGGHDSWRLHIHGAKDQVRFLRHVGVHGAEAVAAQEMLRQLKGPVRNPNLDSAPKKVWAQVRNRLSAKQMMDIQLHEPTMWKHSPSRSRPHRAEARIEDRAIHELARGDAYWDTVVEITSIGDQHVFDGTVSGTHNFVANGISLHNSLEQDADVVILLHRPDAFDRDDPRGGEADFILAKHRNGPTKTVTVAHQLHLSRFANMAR
Description: DnaB intein splicing inhibitors, dose response, biochemical, cell-free fluorescence (AID 449749). It counts as functional.

Experiment [5] deals with BJ. The experiment in a line: BJ-TERT fibroblast viability loss – cell-based, RAS-independent, luminescence, dose response (AID 1933). It counts as functional. The note with it: Homo sapiens.
For experiment [6], the system named is BJ. Description: cells. It counts as functional, cell-based. The settings on record: Homo sapiens.
The target of the next experiment is T3, Protein RecA (Mycobacterium tuberculosis, UniProt P9WHJ3).
T3 sequence (P9WHJ3 whole entry): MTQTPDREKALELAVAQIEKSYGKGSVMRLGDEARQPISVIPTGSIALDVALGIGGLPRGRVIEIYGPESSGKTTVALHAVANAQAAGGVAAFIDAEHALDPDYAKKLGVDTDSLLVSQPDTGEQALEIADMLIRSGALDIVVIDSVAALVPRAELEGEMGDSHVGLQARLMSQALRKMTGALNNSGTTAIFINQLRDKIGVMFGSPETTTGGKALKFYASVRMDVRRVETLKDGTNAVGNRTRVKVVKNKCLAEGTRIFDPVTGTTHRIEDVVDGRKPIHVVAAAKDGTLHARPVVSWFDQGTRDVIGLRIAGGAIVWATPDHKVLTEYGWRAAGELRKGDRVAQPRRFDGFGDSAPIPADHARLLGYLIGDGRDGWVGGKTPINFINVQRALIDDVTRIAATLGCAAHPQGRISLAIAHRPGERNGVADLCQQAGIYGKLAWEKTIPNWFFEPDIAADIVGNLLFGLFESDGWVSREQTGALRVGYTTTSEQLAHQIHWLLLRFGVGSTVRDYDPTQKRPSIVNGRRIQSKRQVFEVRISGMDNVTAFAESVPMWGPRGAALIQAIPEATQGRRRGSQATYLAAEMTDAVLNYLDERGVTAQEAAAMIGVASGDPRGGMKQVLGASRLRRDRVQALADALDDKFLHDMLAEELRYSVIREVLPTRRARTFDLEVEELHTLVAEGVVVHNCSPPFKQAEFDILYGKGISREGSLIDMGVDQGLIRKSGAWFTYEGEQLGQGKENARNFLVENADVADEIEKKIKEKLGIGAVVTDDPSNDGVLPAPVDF
The experiment in a line: Fluorescence Cell-Free Homogeneous Dose Retest to Identify Inhibitors of RecA-Intein Splicing Activity. [Related pubchem assays (depositor defined):AID2097, AID2223, AID489010, AID492950]. It counts as functional.

For experiment [7], the target named is T4, Calpain-2 catalytic subunit (Sus scrofa, UniProt P43367).
T4 sequence (P43367 whole entry): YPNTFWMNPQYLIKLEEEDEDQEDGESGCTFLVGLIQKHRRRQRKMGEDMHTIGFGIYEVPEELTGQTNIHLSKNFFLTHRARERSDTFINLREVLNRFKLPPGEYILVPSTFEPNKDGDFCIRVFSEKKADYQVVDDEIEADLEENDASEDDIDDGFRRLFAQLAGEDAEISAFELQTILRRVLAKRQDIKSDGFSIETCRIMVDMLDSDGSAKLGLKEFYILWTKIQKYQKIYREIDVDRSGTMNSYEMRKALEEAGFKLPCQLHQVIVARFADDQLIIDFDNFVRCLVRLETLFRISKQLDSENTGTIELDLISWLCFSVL
The experiment in a line: m-calpain protease blockers, concentration series – biochemical, fluorogenic peptide substrate, dose response (AID 1420). It is filed as functional.

The nature of experiment [8]: Trypanosoma cruzi growth suppression in host cells – NIH3T3 host cells, beta-gal luminescence, confirmation (AID 2044).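 Note: intracellular parasites grown in NIH/3T3 mouse fibroblasts as host cells; luminescent beta-galactosidase reporter signal from transgenic T. cruzi replicating inside host cells; inhibitors lower the luminescence signal.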 It is filed as functional, cell-based.
Experiment [9] is described as follows: NIH3T3 cell viability loss – ATP luminescence, mouse fibroblasts, counter-screen, dose response (AID 2010).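 Note: cells exposed to compound for about 90 hours before reading.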 It is filed as functional, cell-based. On the technique in general: A counterscreen serves to expose hits that act by an unwanted route or on another target.
Experiment [10] in a line: Luminescence Cell-Based Dose Retest to Confirm Inhibitors of Cancer Stem Cells. [Related pubchem assays (depositor defined):AID2717, AID2721]. It counts as functional. The note with it: Homo sapiens.
In another experiment the target is T5, Leucine aminopeptidase (Plasmodium falciparum 3D7, UniProt Q8IL11).
T5 sequence (Q8IL11 whole entry): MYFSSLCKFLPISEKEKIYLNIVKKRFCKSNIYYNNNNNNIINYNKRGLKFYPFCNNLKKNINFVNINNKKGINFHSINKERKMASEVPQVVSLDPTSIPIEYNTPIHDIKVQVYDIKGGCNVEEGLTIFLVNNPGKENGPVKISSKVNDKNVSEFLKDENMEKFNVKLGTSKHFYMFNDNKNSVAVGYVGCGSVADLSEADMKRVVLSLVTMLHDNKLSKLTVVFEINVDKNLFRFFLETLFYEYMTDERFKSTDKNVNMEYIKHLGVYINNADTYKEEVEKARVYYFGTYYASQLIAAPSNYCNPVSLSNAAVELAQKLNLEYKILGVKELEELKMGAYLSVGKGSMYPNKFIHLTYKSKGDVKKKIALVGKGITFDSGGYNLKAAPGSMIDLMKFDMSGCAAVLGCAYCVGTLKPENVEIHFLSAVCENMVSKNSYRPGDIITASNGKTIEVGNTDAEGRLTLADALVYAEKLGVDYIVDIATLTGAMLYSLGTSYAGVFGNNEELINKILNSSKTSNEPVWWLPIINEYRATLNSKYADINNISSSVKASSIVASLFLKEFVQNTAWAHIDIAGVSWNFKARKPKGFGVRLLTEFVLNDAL
The experiment in a line: P. falciparum M17LAP inhibitors, primary screen, biochemical, fluorogenic H-Leu-NHMec substrate, 1536-well (AID 1619). It counts as functional.

Experiment [11] is described as follows: blockers of HIV-1 ZM109 envelope-driven cell-cell fusion – HeLa effector, CEM target cells, luciferase, cherry-pick, dose response (AID 652058).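 Note: luciferase signal from HIV-1 Env mediated cell-cell fusion of effector and target cells.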 It is filed as functional, cell-based.
Experiment [12] is described as follows: blockers of HIV-1 envelope-mediated cell-cell fusion – cherry-pick, dose response (AID 652057). It is filed as functional, cell-based.
A short description of experiment [13]: HIV-1 AD8 envelope cell-cell fusion blockers – cherry-pick, dose response (AID 652062).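 Note: luciferase signal from cell-cell fusion driven by HIV-1 clade B AD8 Env; potency is for inhibitors of fusion seen as a drop in luminescence.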 It is filed as functional, cell-based.
A short description of experiment [14]: P. falciparum Dd2 growth inhibitors, dose response, SYBR Green, cherry-picked samples (AID 1159567). It is filed as functional, cell-based.

Each structure is given as a SMILES string. Calls of active or inactive are those of the source.

`O=C(CSc1nnnn1C1CCCCC1)Nc1cccc(NC(=O)c2ccco2)c1`: the IC50 – broadly, the concentration needed to halve the response being measured – on Protein skinhead-1 is > 100 µM (inactive). Consider `CN(Cc1ccc(Cl)s1)C(=O)CCl`, for which the EC50 (commonly the concentration giving half of the maximal effect) in the experiment with BJ [1] was > 150 µM (inconclusive); in experiment [2], 27.6 µM (active); in the experiment on BJ [5] it was 5.73 µM (active); with BJ [6], > 150 µM (inconclusive); on Protein RecA, 8.93 µM (active). Moreover, the CC50 in experiment [3] was 11.7 µM (active). In [4], the concentration at half-maximal activity (AC50) – broadly, the concentration giving half of the maximal activity seen – was 50.5 µM (active). Turning to `CC(C)CCN(C(=O)Nc1ccccc1)C(C)c1cccs1` (configuration not stated), in experiment [7], the IC50 is on record as 20.3 µM (not active). For the compound `CCN=C(S)N(CCc1c(C)[nH]c2ccc(Cl)cc12)Cc1ccco1`, the EC50 is 2.81 µM (active) in [8] and > 60 µM (not active) in [9]. Moreover, the IC50 in [7] is 9.05 µM (not active). On to `CCCC(=O)Nc1ccccc1NC(=O)CCC`, for which the IC50 in experiment [7] is on record as > 50 µM (not active). As for `O=C(/C=C/Nc1ccc(F)c(F)c1)c1cccs1`, at Protein skinhead-1, the IC50 was 18.2 µM (active). On the same count and under the same terms, with `CN(CC(=O)Nc1nc2ccccc2s1)S(=O)(=O)c1ccc(Cl)cc1` the figure was > 100 µM (inactive).

Regarding `O=C(Nc1ccc(Cl)c(Cl)c1)Nc1ccccc1NS(=O)(=O)c1cccs1`, the values for the AC50 in experiment [10] and in experiment [4] were 7.6 µM (active) and 4.19 µM (active), respectively. Moreover, the half-maximal effective concentration (EC50) at Protein RecA is 29.1 µM (active). With `Cc1ccc(Nc2nc(-c3cccs3)cs2)nc1`, the IC50 at Protein skinhead-1 was 54.6 µM (inactive).

For the compound `N#CC1=C(N)Oc2[nH]nc(-c3ccc(F)cc3)c2C1c1cccnc1` (configuration not stated), the concentration for half-maximal inhibition (IC50) at Leucine aminopeptidase is 61.2 µM (active). In addition, the AC50 in [4] is 7.8 µM (active). Also, the EC50 at Protein RecA is 1.63 µM (active).

Regarding `CN(C(=O)c1ccco1)c1nc(-c2ccccc2)cs1`, the IC50 on Protein skinhead-1 is 100 µM (inactive).

For `Cc1cccc(N2CCN(C(=O)CN3C(=O)C4CC=CCC4C3=O)CC2)c1C` (configuration not stated), the IC50 in experiment [7] is reported as > 50 µM (not active).

With `Cc1ccccc1-n1c(SCC(=O)O)nc2sc3c(c2c1=O)CCCC3`, at Protein skinhead-1, the IC50 was > 100 µM (inactive). Regarding `C/C(=N\NC(=S)NC1CCCCC1)c1ccc(OC(F)F)cc1OC(F)F`, in [7], the IC50 is given as 3.12 µM (not active). Turning to `C[C@H]1CN([C@@H](C)CO)C(=O)c2ccccc2-c2ccccc2CO[C@@H]1CN(C)C(=O)CCC(F)(F)F`, the concentration at half-maximal activity (AC50) in experiment [11] is 1.48 µM (active); in experiment [12], 1.1 µM (active); in [13] it was 2.55 µM (active). The like results for `COc1ccccc1NC(=O)N[C@H]1C=C[C@@H](CC(=O)N[C@H](C)c2ccccc2)O[C@H]1CO` were, in that order, 3.38 µM (active), 4.72 µM (active) and 11 µM (active).

With `CCSc1ncc(/C=N/Nc2ccccc2)n1C`, at Protein skinhead-1, the IC50 was > 100 µM (inactive).

Regarding `CCC(=O)N1C[C@H](C)[C@H](OC)CN(C)C(=O)c2cc(NC(=O)Nc3cccc(F)c3)ccc2OC[C@@H]1C`, in experiment [14], the AC50 was 9.89 µM (active). Same read-out and setting: the figure for `O=C(C[C@H]1C[C@H]2c3cc(NC(=O)Nc4ccccc4)ccc3O[C@H]2[C@@H](CO)O1)NC1CCCC1` is 6.1 µM (active).

Regarding `O=C(C[C@@H]1CC[C@@H]2[C@H](COC[C@@H](O)CN2C(=O)c2ccccc2F)O1)NCc1ccc(-c2ccccc2)cc1`, in [14], the AC50 was 6.33 µM (active). On the same count and under the same terms, the figure for `COc1cccc(S(=O)(=O)N(C)C[C@@H]2Oc3ncc(C#Cc4ccc(C(F)(F)F)cc4)cc3C(=O)N([C@H](C)CO)C[C@@H]2C)c1` is 4.11 µM (active).

The record behind these values is ChEMBL document CHEMBL1201862, “PubChem BioAssay data set” (2004).
